Test results as given in patent publication US12172983B2, “EGFR inhibitors” (Blueprint Medicines Corporation, priority 2019, dated 2024).
Read-outs that look alike come from different tables or passages of the source.

Assays:
[1] = test system: phosphorylation of EGFR (Tyr1068) in NCI-H1975 cell line that harbors the EGFR L858R T790M mutations; assay: NCI-H1975 pEGFR AlphaLISA assay; format: cell-based; settings: 4-5 hours incubation, read-out: Ext pEGFR H1975
Procedure, shortened: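 Phospho-EGFR Tyr1068 AlphaLISA readout: lysates taken from compound-treated H1975 cells (L858R T790M EGFR) after a 4-5 h exposure at 37 °C. Cells had adhered overnight beforehand. IC50 derived by plotting % pEGFR inhibition against log compound concentration.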

[2] = biological target: T1, EGFR (L858R T790M C797S) (Homo sapiens, UniProt P00533, C797S/L858R/T790M); assay: Biochemical EGFR inhibition assay (Caliper mobility shift), EGFR LRTMCS mutant; settings: inhibitory activity against EGFR LRTMCS mutant; apparent IC50; read-out: Ext Enz LRTMCS
T1 construct: purchased SignalChem E10-122VG
T1 sequence (P00533 25-1210 T790M/C797S/L858R): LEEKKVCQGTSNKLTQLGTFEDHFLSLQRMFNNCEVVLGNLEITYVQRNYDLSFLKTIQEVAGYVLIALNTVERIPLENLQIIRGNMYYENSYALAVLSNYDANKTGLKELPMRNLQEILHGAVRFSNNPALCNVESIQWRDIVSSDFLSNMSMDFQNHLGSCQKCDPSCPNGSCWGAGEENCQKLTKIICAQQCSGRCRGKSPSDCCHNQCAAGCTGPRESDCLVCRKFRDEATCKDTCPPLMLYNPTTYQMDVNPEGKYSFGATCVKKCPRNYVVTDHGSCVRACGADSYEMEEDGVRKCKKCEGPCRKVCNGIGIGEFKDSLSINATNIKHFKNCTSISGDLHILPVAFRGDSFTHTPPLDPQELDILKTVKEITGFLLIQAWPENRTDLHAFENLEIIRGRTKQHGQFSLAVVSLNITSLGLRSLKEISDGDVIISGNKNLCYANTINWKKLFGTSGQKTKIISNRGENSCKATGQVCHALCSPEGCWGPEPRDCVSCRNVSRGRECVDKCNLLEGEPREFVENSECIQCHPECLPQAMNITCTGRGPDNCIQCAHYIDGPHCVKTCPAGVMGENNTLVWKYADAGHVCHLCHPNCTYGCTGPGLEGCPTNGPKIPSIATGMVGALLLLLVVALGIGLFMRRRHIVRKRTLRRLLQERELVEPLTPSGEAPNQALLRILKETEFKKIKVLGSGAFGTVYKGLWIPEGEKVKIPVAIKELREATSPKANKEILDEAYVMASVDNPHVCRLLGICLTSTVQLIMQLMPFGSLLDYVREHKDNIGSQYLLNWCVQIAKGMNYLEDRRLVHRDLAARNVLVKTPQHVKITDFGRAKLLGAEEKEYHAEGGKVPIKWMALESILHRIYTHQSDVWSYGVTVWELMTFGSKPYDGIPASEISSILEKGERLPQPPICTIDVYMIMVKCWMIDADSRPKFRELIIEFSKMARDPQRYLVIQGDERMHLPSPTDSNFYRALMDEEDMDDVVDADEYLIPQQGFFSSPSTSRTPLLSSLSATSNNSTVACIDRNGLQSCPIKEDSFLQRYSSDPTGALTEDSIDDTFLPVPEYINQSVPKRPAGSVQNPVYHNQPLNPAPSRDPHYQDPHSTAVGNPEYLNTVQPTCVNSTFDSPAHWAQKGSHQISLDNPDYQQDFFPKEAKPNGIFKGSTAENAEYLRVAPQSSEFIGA
Procedure, shortened: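 Apparent IC50s were derived by plotting percent activity against the log of compound concentration. Activity was measured as phosphopeptide electrophoretically separated from substrate, after reactions at room temperature reached 10% to 20% phosphorylation and were halted with 35 mM EDTA.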

[3] = Homo sapiens, NCI-H1975, inhibition of phosphorylation of mutant EGFR in NCI-H1975 cells

Row | SMILES | IC50 [1, 3] [nM] | IC50 [2] [nM] | IC50 ([1]; inhibition of phosphorylation of mutant EGFR in NCI-H1975 cells) [nM]
1 | CC(C)c1ccc(N2CC(CS(C)(=O)=O)C2)c2cnc(Nc3ccnc(N4CCOCC4)n3)cc12 [Compound 1, 8-[3-(methanesulfonylmethyl)azetidin-1-yl]-N-[2-(morpholin-4-yl)pyrimidin-4-yl]-5-(propan-2-yl)isoquinolin-3-amine] | 30.1 to 50 | 15.1 to 20 | –
2 | CC(C)c1cnc(N2CC(CS(C)(=O)=O)C2)c2cnc(Nc3ccnc(N4CCN(C)CC4)n3)cc12 [Compound 3, 8-[3-(methanesulfonylmethyl)azetidin-1-yl]-N-[2-(4-methylpiperazin-1-yl)pyrimidin-4-yl]-5-(propan-2-yl)-2,7-naphthyridin-3-amine] | 30.1 to 50 | 20.1 to 30 | –
3 | CO[C@H]1CCN(c2nccc(Nc3cc4cccc(N5C[C@H](CS(C)(=O)=O)[C@H]5C)c4cn3)n2)C[C@H]1F [Compound 4, N-{2-[(3R,4S)-3-fluoro-4-methoxypiperidin-1-yl]pyrimidin-4-yl}-8-[(2R,3S)-3-(methanesulfonylmethyl)-2-methylazetidin-1-yl]isoquinolin-3-amine] | 30.1 to 50 | ≤ 15 | –
4 | CO[C@@H]1CCN(c2nccc(Nc3cc4cccc(N5C[C@H](CS(C)(=O)=O)[C@H]5C)c4cn3)n2)C[C@@H]1F [Compound 5, N-{2-[(3S,4R)-3-fluoro-4-methoxypiperidin-1-yl]pyrimidin-4-yl}-8-[(2R,3S)-3-(methanesulfonylmethyl)-2-methylazetidin-1-yl]isoquinolin-3-amine] | 10.1 to 20 | ≤ 15 | –

Continued, values first:

Row | IC50 [1, 3] [nM] | IC50 [2] [nM] | IC50 ([1]; inhibition of phosphorylation of mutant EGFR in NCI-H1975 cells) [nM] | SMILES
5 | ≤ 10 | 20.1 to 30 | – | [2H]C([2H])([2H])O[C@H]1[C@@H](O)CN(c2nccc(Nc3cc4c(C(C)C)ccc(N5C[C@H](CS(C)(=O)=O)[C@H]5C)c4cn3)n2)CC1(F)F (single isomer, unassigned) [Compound 313, (3S,4S)-5,5-difluoro-1-(4-((5-isopropyl-8-((2R,3S)-2-methyl-3-((methylsulfonyl)methyl)azetidin-1-yl)isoquinolin-3-yl)amino)pyrimidin-2-yl)-4-(^2H3)methoxypiperidin-3-ol or (3R,4R)-5,5-difluoro-1-(4-((5-isopropyl-8-((2R,3S)-2-methyl-3-((methylsulfonyl)methyl)azetidin-1-yl)isoquinolin-3-yl)amino)pyrimidin-2-yl)-4-(^2H3)methoxypiperidin-3-ol]
6 | – | 30.1 to 100 | ≤ 10 | [2H]C([2H])([2H])O[C@H]1[C@@H](O)CN(c2nccc(Nc3cc4c(C(C)C)ccc(N5C[C@H](CS(C)(=O)=O)[C@H]5C)c4cn3)n2)CC1(F)F (single isomer, unassigned) [Compound 314, (3S,4S)-5,5-difluoro-1-(4-((5-isopropyl-8-((2R,3S)-2-methyl-3-((methylsulfonyl)methyl)azetidin-1-yl)isoquinolin-3-yl)amino)pyrimidin-2-yl)-4-(^2H3)methoxypiperidin-3-ol or (3R,4R)-5,5-difluoro-1-(4-((5-isopropyl-8-((2R,3S)-2-methyl-3-((methylsulfonyl)methyl)azetidin-1-yl)isoquinolin-3-yl)amino)pyrimidin-2-yl)-4-(^2H3)methoxypiperidin-3-ol]
7 | ≤ 10 | 20.1 to 30 | – | CO[C@@H]1[C@H](F)CN(c2nccc(Nc3cc4c(C(C)C)ccc(N5CC(CS(C)(=O)=O)C5)c4cn3)n2)C[C@@H]1OC (stereo in doubt) [Compound 201]
8 | 30.1 to 50 | ≤ 15 | – | CC(C)c1ccc(N2CC(CS(C)(=O)=O)C2)c2cnc(Nc3ccnc(N4C[C@H]5COC[C@H]5C4)n3)cc12 [Compound 10, N-{2-[(3aR,6aS)-hexahydro-1H-furo[3,4-c]pyrrol-5-yl]pyrimidin-4-yl}-8-[3-(methanesulfonylmethyl)azetidin-1-yl]-5-(propan-2-yl)isoquinolin-3-amine]
9 | 30.1 to 50 | ≤ 15 | – | CC(C)c1ccc(N2CC(CS(C)(=O)=O)C2)c2cnc(Nc3ccnc(N4CC5CCC(C4)O5)n3)cc12 [Compound 12, 8-[3-(methanesulfonylmethyl)azetidin-1-yl]-N-(2-{8-oxa-3-azabicyclo[3.2.1]octan-3-yl}pyrimidin-4-yl)-5-(propan-2-yl)isoquinolin-3-amine]
